A word on the MIC: it is the lowest concentration that inhibits growth of the organism. The low end stands for a more susceptible organism, the high end for a less susceptible organism.

Test [1] concerns Carbapenem resistant Acinetobacter baumannii. As to the kind of experiment: Broth microdilution minimum inhibitory concentration. Type of test: cell-based. Conditions: compound alone. As for the experimental part: (§1) Antibacterial activity of the synthesized compounds was determined following guidelines established by the Clinical and Laboratory Standards Institute M07-A10 (CLSI 2015), following the broth microdilution method. Briefly, the test articles were dissolved in 100% DMSO, diluted by 2-fold serial titrations in the same vehicle (100% DMSO), for a total of 11 concentrations. A 4 μL aliquot of each dilution was then added to 196 μL of broth medium seeded with the bacterial suspension in wells of a 96 well plate (bacterial count: 2×10^5 to 8×10^5 colony forming units/mL final). The highest test substance concentration was 1028 μg/mL, and the final vehicle concentration was 2 percent. Following incubation, the test plate was visually examined, and each well was scored for growth or complete inhibition of growth. The minimum inhibitory concentration was determined as the lowest concentration were no growth of the bacterial was observed. Each test article was assayed in duplicate.

The subject of test [2] is Carbapenem resistant Klebsiella pneumoniae. The description is as above. Type of test: cell-based. To be noted: compound alone. As for the experimental part: as §1
The test system of test [3] is Methicillin resistant Staphylococcus aureus. The test is described as above. Type of test: cell-based. To be noted: compound alone. The protocol:
as §1

Test [4] concerns Multidrug resistant Pseudomonas aeruginosa. The description is as above. Type of test: cell-based. Conditions: compound alone. As for the experimental part: as §1
Test [5] relates to Vancomycin resistant Enterococcus faecalis. The description is as above. Conditions: compound alone. Type of test: cell-based. As for the experimental part:
as §1

For a further test, the system named is MRSA. As to the kind of experiment: Rescue concentration of substituted phenyl azaindole derivatives. Type of test: cell-based, Staphylococcus aureus. To be noted: Amoxicillin fixed at 2 μg/mL. As for the experimental part: (§2) The antibiotic adjuvant activity of the SPazaBIMs were evaluated in combination with representative antibiotics (representing 13 antibiotic classes) against the 19 pathogens strains listed in Table 3. To assess the adjuvant properties of the SP-azaBIM molecules, a modified checkerboard minimum inhibitory concentration assay was used. A fixed concentration of the respective antibiotic (susceptible breakpoint concentration) was mixed with a twofold dilution series of the test SP-azaBIM (FIG. 1). This was to determine the concentration of SP-azaBIM needed potentiate the antibiotic at a clinically susceptible breakpoint concentration. Antibiotic susceptible breakpoint concentrations for the respective bacteria were determined using Clinical Laboratory Standards Institute (CLSI) criteria M100 ED31.
(§3) In this study, only those antibiotics to which the bacterial was classed as resistant were included in the adjuvant assays. In this assay we recorded the rescue concentration of the SP-BIM for a respective antibiotic. The rescue concentration was defined as the concentration of the adjuvant that reduces the minimum inhibitory concentration (MIC) of an antibiotic to the susceptibility breakpoint.
(§4) Immediately prior to testing, the respective antibiotic and SP-azaBIM was dissolved in sterile deionised water at 20× the required test concentration. Each microtiter well was then inoculated with 180 μl of bacterial inoculum of 10^6 CFU/ml in ca-MHB, and 10 μl each if the antibiotic and SP-azaBIM was added to the plates. These plates were then incubated at 35° C. for 24 h under aerobic conditions. A similar method was followed for the fastidious pathogens except that they were cultured in ca-MHB with 5% sheep blood and 5% CO2.
(§5) Bacterial growth was visually inspected after the incubation period and the rescue concentration of the test SP-azaBIM was determined as the lowest concentration of the compound needed to reduce bacterial growth by 99.99% at the susceptible breakpoint concentration of the antibiotic. For example, CLSI states that Pseudomonas aeruginosa is susceptible to the Imipenem if the MIC is ≤2 μg mL^−1. If the bacteria can tolerate this concentration in vitro, then the bacteria has an intermediate or absolute resistance toward that antibiotic. The goal was to determine the concentration of SP-azaBIM needed to cause P. aeruginosa death at 2 μg mL^−1 of Imipenem therefore restoring susceptibility of the bacteria to toward the antibiotic.
(§6) Phenyl azaindole compounds are also tested for their adjuvant activities and the method is shown in Example 39.

Another test relates to K. pneumoniae. The test is described as above. Type of test: cell-based. To be noted: for Rescue concentration, K. pneumoniae Ciprofloxacin (1 μg/mL): Ciprofloxacin fixed at 1 μg/mL; for Rescue concentration, K. pneumoniae Imipenem (1 μg/mL): Imipenem fixed at 1 μg/mL. The protocol: as §2, §3, §4, §5, §6
In a further test the test system is P. aeruginosa. Described as above. Type of test: cell-based. Conditions: Imipenem fixed at 1 μg/mL. The protocol:
as §2, §3, §4
Bacterial growth was visually inspected after the incubation period and the rescue concentration of the test SP-azaBIM was determined as the lowest concentration of the compound needed to reduce bacterial growth by 99.99% at the susceptible breakpoint concentration of the antibiotic. […] If the bacteria can tolerate this concentration in vitro, then the bacteria has an intermediate or absolute resistance toward that antibiotic. […]
as §6

As for `O=[N+]([O-])c1cccc(C(O)c2c[nH]c3cnccc23)c1` (stereo not drawn) [Compound 3NO2-6aza-OH, (3-nitrophenyl)(1H-pyrrolo[2,3-c]pyridin-3-yl)methanol], the MIC in test [1], in test [2], in test [3], in test [4] and in test [5] was under 1020 µg/mL each time. Also, the “Rescue concentration, MRSA Amoxicillin (2 μg/mL)” value (“Rescue concentration … (2 μg/mL)” below) with MRSA was 64 µg/mL. Moreover, in the test with K. pneumoniae, the “Rescue concentration, K. pneumoniae Ciprofloxacin (1 μg/mL)” value was 128 µg/mL. The “Rescue concentration, K. pneumoniae Imipenem (1 μg/mL)” value with K. pneumoniae came to 256 µg/mL. In the test on P. aeruginosa, the “Rescue concentration, P. aeruginosa Imipenem (1 μg/mL)” value was under 256 µg/mL.

For `O=[N+]([O-])c1cccc(C(c2c[nH]c3cnccc23)c2c[nH]c3cnccc23)c1` [3NO2-Bis-6aza, 3,3′-((3-nitrophenyl)methylene)bis(1H-pyrrolo[2,3-c]pyridine)], the MIC in test [1], in test [2], in test [3], in test [4] and in test [5] was under 1020 µg/mL each time. Also, the “Rescue concentration … (2 μg/mL)” value in the test with MRSA is under 256 µg/mL. In the test with K. pneumoniae, the “Rescue concentration, K. pneumoniae Ciprofloxacin (1 μg/mL)” value was under 256 µg/mL. The “Rescue concentration, K. pneumoniae Imipenem (1 μg/mL)” value in the test with K. pneumoniae was under 256 µg/mL. In the test on P. aeruginosa, the “Rescue concentration, P. aeruginosa Imipenem (1 μg/mL)” value is under 256 µg/mL.

As for `O=[N+]([O-])c1ccccc1C(O)c1c[nH]c2ncccc12` (stereo not drawn) [Compound 2NO2-7aza-OH, (2-nitrophenyl)(1H-pyrrolo[2,3-b]pyridin-3-yl)methanol], the MIC in test [1], in test [2], in test [3], in test [4] and in test [5] was under 1020 µg/mL in each case. In addition, the “Rescue concentration … (2 μg/mL)” value in the test with MRSA came out at 256 µg/mL. Besides, the “Rescue concentration, K. pneumoniae Ciprofloxacin (1 μg/mL)” value with K. pneumoniae was under 256 µg/mL. Also, in the test with K. pneumoniae, the “Rescue concentration, K. pneumoniae Imipenem (1 μg/mL)” value is under 256 µg/mL. The “Rescue concentration, P. aeruginosa Imipenem (1 μg/mL)” value in the test on P. aeruginosa is under 256 µg/mL.

Regarding `O=[N+]([O-])c1cccc(C(O)c2c[nH]c3c(Cl)nccc23)c1` (stereo not drawn) [3NO2-7Cl-6aza, (7-chloro-1H-pyrrolo[2,3-c]pyridin-3-yl)(3-nitrophenyl)methanol], the MIC in test [1], in test [2], in test [3], in test [4] and in test [5] was under 1020 µg/mL each time. Further, the “Rescue concentration … (2 μg/mL)” value with MRSA came to 32 µg/mL. For the same compound, the “Rescue concentration, K. pneumoniae Ciprofloxacin (1 μg/mL)” value with K. pneumoniae was under 256 µg/mL. Moreover, in the test with K. pneumoniae, the “Rescue concentration, K. pneumoniae Imipenem (1 μg/mL)” value was under 256 µg/mL. Besides, in the test with P. aeruginosa, the “Rescue concentration, P. aeruginosa Imipenem (1 μg/mL)” value was under 256 µg/mL.

Take `O=[N+]([O-])c1cccc(C(O)c2c[nH]c3ncc(F)cc23)c1` (stereo not drawn) [3NO2-5Fl-7aza-OH, (5-fluoro-1H-pyrrolo[2,3-b]pyridin-3-yl)(3-nitrophenyl)methanol]: the MIC in test [1], in test [2], in test [3], in test [4] and in test [5] was under 1020 µg/mL each time. The “Rescue concentration … (2 μg/mL)” value in the test on MRSA was 128 µg/mL. For the same compound, in the test on K. pneumoniae, the “Rescue concentration, K. pneumoniae Ciprofloxacin (1 μg/mL)” value is under 256 µg/mL. Besides, in the test on K. pneumoniae, the “Rescue concentration, K. pneumoniae Imipenem (1 μg/mL)” value was under 256 µg/mL. For the same compound, the “Rescue concentration, P. aeruginosa Imipenem (1 μg/mL)” value in the test with P. aeruginosa was under 256 µg/mL.

With `OC(c1ccc(Br)cc1)c1c[nH]c2c(Cl)nccc12` (stereo not drawn) [4Br-7Cl-6aza-OH, (4-bromophenyl)(7-chloro-1H-pyrrolo[2,3-c]pyridin-3-yl)methanol], the MIC in test [1], in test [2], in test [3], in test [4] and in test [5] was under 1020 µg/mL in each case. The “Rescue concentration … (2 μg/mL)” value in the test with MRSA is 2 µg/mL. In addition, in the test on K. pneumoniae, the “Rescue concentration, K. pneumoniae Ciprofloxacin (1 μg/mL)” value is under 256 µg/mL. For the same compound, in the test with K. pneumoniae, the “Rescue concentration, K. pneumoniae Imipenem (1 μg/mL)” value was under 256 µg/mL. Also, the “Rescue concentration, P. aeruginosa Imipenem (1 μg/mL)” value with P. aeruginosa is under 256 µg/mL.

Regarding `O=Cc1cccc(C(O)c2c[nH]c3cnccc23)c1` (stereo not drawn) [ISO-6aza-OH, 3-(hydroxy(1H-pyrrolo[2,3-c]pyridin-3-yl)methyl)benzaldehyde], the MIC in test [1], in test [2], in test [3], in test [4] and in test [5] was under 1020 µg/mL in each case. Also, in the test with MRSA, the “Rescue concentration … (2 μg/mL)” value turned out to be 64 µg/mL. For the same compound, the “Rescue concentration, K. pneumoniae Ciprofloxacin (1 μg/mL)” value with K. pneumoniae is under 256 µg/mL. In addition, the “Rescue concentration, K. pneumoniae Imipenem (1 μg/mL)” value in the test on K. pneumoniae is under 256 µg/mL. The “Rescue concentration, P. aeruginosa Imipenem (1 μg/mL)” value with P. aeruginosa was under 256 µg/mL.

Regarding `O=[N+]([O-])c1ccc(C(O)c2c[nH]c3ncccc23)cc1` (stereo not drawn) [Compound 4NO2-7aza-OH, (4-nitrophenyl)(1H-pyrrolo[2,3-b]pyridin-3-yl)methanol], the MIC in test [1], in test [2], in test [3], in test [4] and in test [5] was under 1020 µg/mL throughout. Further, the “Rescue concentration … (2 μg/mL)” value in the test with MRSA was determined as 32 µg/mL. The “Rescue concentration, K. pneumoniae Ciprofloxacin (1 μg/mL)” value in the test on K. pneumoniae was under 256 µg/mL. In addition, in the test with K. pneumoniae, the “Rescue concentration, K. pneumoniae Imipenem (1 μg/mL)” value is under 256 µg/mL. In addition, the “Rescue concentration, P. aeruginosa Imipenem (1 μg/mL)” value with P. aeruginosa is under 256 µg/mL.

For the compound `O=[N+]([O-])c1ccc(C(O)c2c[nH]c3cnccc23)cc1` (stereo not drawn) [Compound 4NO2-6aza-OH, (4-nitrophenyl)(1H-pyrrolo[2,3-c]pyridin-3-yl)methanol], the MIC in test [1], in test [2], in test [3], in test [4] and in test [5] was under 1020 µg/mL in each case. Also, the “Rescue concentration … (2 μg/mL)” value in the test on MRSA worked out at 128 µg/mL. Besides, the “Rescue concentration, K. pneumoniae Ciprofloxacin (1 μg/mL)” value in the test on K. pneumoniae was 128 µg/mL. The “Rescue concentration, K. pneumoniae Imipenem (1 μg/mL)” value in the test with K. pneumoniae was 128 µg/mL. The “Rescue concentration, P. aeruginosa Imipenem (1 μg/mL)” value in the test on P. aeruginosa was under 256 µg/mL.

Take `O=[N+]([O-])c1cccc(C(O)c2c[nH]c3cnc(Cl)cc23)c1` (stereo not drawn) [3NO2-5Cl-6aza-OH, (5-chloro-1H-pyrrolo[2,3-c]pyridin-3-yl)(3-nitrophenyl)methanol]: the MIC in test [1], in test [2], in test [3], in test [4] and in test [5] was under 1020 µg/mL in each case. Also, in the test on MRSA, the “Rescue concentration … (2 μg/mL)” value was under 256 µg/mL. For the same compound, the “Rescue concentration, K. pneumoniae Ciprofloxacin (1 μg/mL)” value in the test with K. pneumoniae was under 256 µg/mL. Besides, the “Rescue concentration, K. pneumoniae Imipenem (1 μg/mL)” value with K. pneumoniae was under 256 µg/mL. Moreover, the “Rescue concentration, P. aeruginosa Imipenem (1 μg/mL)” value in the test with P. aeruginosa was under 256 µg/mL.

`O=[N+]([O-])c1ccc(C(O)c2c[nH]c3ncc(Cl)cc23)cc1` (stereo not drawn) [4NO2-5Cl-7aza-OH, (5-chloro-1H-pyrrolo[2,3-b]pyridin-3-yl)(4-nitrophenyl)methanol]: the MIC in test [1], in test [2], in test [3], in test [4] and in test [5] was under 1020 µg/mL each time. Besides, the “Rescue concentration … (2 μg/mL)” value in the test with MRSA turned out to be 32 µg/mL. In addition, the “Rescue concentration, K. pneumoniae Ciprofloxacin (1 μg/mL)” value in the test on K. pneumoniae was under 256 µg/mL. In the test with K. pneumoniae, the “Rescue concentration, K. pneumoniae Imipenem (1 μg/mL)” value is under 256 µg/mL. Moreover, the “Rescue concentration, P. aeruginosa Imipenem (1 μg/mL)” value in the test on P. aeruginosa was under 256 µg/mL.
